Laboratory results taken from ChEMBL document CHEMBL1147326, “Goniotriol from Goniothalamus giganteus” (J Nat Prod, 1989).
Values after ≈ are worked out from the molar mass of the structure shown.

What was measured:
MCF7 = experiment: Cytotoxicity against human MCF7 cells; type: functional; conditions: read-out: ED50 (the source's name)
HT-29 = experiment: Cytotoxicity against human HT-29 cells; type: functional; conditions: read-out: ED50 (the source's name)
Artemia = experiment: Toxicity in brine shrimp; type: organism-based; conditions: in vivo
A549 = experiment: Cytotoxicity against human A549 cells; type: functional; conditions: read-out: ED50 (the source's name)
[1] = test system: Agrobacterium tumefaciens; experiment: Antitumor activity against Agrobacterium tumefaciens-induced crown gall tumors in potato tuber by potato disk test; type: functional

SMILES: O=C1C=C[C@H](O)[C@H]([C@H](O)[C@H](O)c2ccccc2)O1 [GONIOTRIOL]
- EC50 (MCF7): 5.9 µg/mL (≈ 23.6 µM)
- EC50 (HT-29): > 10 µg/mL
- LC50 (Artemia): 269 ppm
- EC50 (A549): > 10 µg/mL
- inhibition (INH) [1]: 38%
